Test results as given in US8895048B2, “Templated islet cells and small islet cell clusters for diabetes treatment” (The University of Kansas, priority 2010, dated 2014).

system: beta cells; experiment: Relative beta cell adhesion to biomaterial films in 96-well plates; format: cell-based, rat; settings: attached cells 24 hours after plating and three washes, normalized to empty well; triplicate
Procedure: In a typical experiment, 1% stock solutions of the listed biomaterials first were prepared. Most materials dissolved in deionized water at neutral pH. […] Polymers normally soluble in water (e.g. dextran sulfate, alginate, etc.) can be cross-linked to form the film matrix. Approximately 25 μL of each stock solution was added to three individual wells in 96-well plates and left to evaporate or vacuum dried, thus, depositing a thin biomaterial film at the bottom of each well. […] Several proteins offered commercially to promote cell adhesion on well plates (e.g. fibronectin, laminin, etc.) were prescreened for cell adhesion as well.
A dilute suspension of beta cells was incubated in the 96-well plates overnight and washed three times to remove unbound beta cells. The beta cell suspension was homogeneous and equal aliquots per well were assumed to contain a similar quantity of beta cells. […] In general, mildly hydrophobic polymers performed well for adhering beta cells (Table 1).
Cell adhesion was determined by counting the number of attached cells 24 hours after plating on the biomaterial and following three washes. The counts were normalized to the number of cells that attach to a well bottom lacking a biomaterial (see empty well, control) using the following calculation: number of cells attached in the well of interest/number of cells in empty well. Each experiment was repeated in triplicate.

Which Relative cell adhesion does the source give for Gelatin here?
The Relative cell adhesion was 2.0 ± 0.2.

Fibronectin was tested. Which Relative cell adhesion did it give?
Its Relative cell adhesion is 3.7 ± 0.7.

How did the Relative cell adhesion turn out when Laminin was run?
The Relative cell adhesion was 8.7 ± 0.6.
